Source: PubChem BioAssay AID1963597 (National Center for Advancing Translational Sciences (NCATS), 2024)

These compounds were tested on human liver microsomes, metabolic stability half-life (assay: NCATS Human Liver Microsomal (HLM) Stability Profiling). Conditions: higher = more stable; screened at 1 µM (by protocol).
Procedure, shortened: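 Substrate depletion (in vitro t1/2): 1 µM compound with 0.5 mg/mL microsomes and NADPH regenerating system, phosphate buffer pH 7.4, 37 °C. Sampled at 0, 5, 10, 15, 30, 60 min into cold acetonitrile with albendazole internal standard for MS quantification.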
For `O=C(Nc1ccc(-c2ccnc(Nc3ccc(N4CCOCC4)cc3)n2)cc1)C1CCCN1` (configuration not stated), the half-life was greater than 120 min. In the case of `C=Cc1ccc(Cn2c(SCC(=O)N3CCN(c4ccc(F)cc4)CC3)nc3ccccc32)cc1`, the half-life is reported as 2.42 min. Work on `COc1ccc(CCN(C)CCC[C@@](C#N)(c2cc(OC)c(OC)c(OC)c2)C(C)C)cc1OC` yielded a half-life of 7.68 min. `NC(=Nc1ccc(CCNCc2cccc(Cl)c2)cc1)c1cccs1` was tested, and the half-life was greater than 120 min. `Nc1c(I)cc(I)c(C(=O)N(CCC(=O)O)c2ccccc2)c1I` showed a half-life greater than 120 min. `Cc1cc(CN)cc(C)c1NC(=O)c1ccc(-c2cc(Cl)ccc2Cl)o1` gave a half-life greater than 120 min. For `COc1ccc(C(=O)n2c(C)c(Cc3cccc(O[C@@H](C)C(=O)O)c3)c3cc(OC(F)(F)F)ccc32)cc1`, the half-life was greater than 120 min. With `Cc1c(NC(=O)OCC2COCCN2)cn2ncnc(Nc3ccc4c(cnn4Cc4cccc(F)c4)c3)c12` (configuration not stated) the half-life was greater than 120 min. Compound `Cc1noc(C)c1-c1cc(O)cc(C(O)c2ccccc2)c1` (configuration not stated) has a half-life of 46.2 min. `O=C(CC1N=C2c3ccccc3N=C(SCc3ccc(Cl)cc3)N2C1=O)NCCc1ccccc1` (configuration not stated) was tested, and the half-life was 4.19 min. `COc1ccc(Sc2ccc(NC(=O)c3ccccc3Cl)cc2C#N)cc1` was tested, and the half-life was 31.4 min. With `Cc1oc(=O)oc1COC(=O)[C@@H]1N2C(=O)[C@@H](NC(=O)[C@H](N)c3ccccc3)[C@H]2SC1(C)C` the half-life was 12.2 min. In the case of `Cn1cc(-c2[nH]c3cc(NC(=O)[C@H](N)C4CCCCC4)cc4c3c2C=NNC4=O)cn1`, the half-life is reported as 102 min. `CC1=C(C(=O)Nc2cccc(-c3ccn[nH]3)c2)C(c2ccccc2Cl)N=C(Nc2nc3ccccc3o2)N1` (configuration not stated) showed a half-life of 71.5 min. Work on `OCCN1CCN(CC/C=C2/c3ccccc3Sc3ccc(C(F)(F)F)cc32)CC1` yielded a half-life of 48.4 min. For `CC1(C#N)CCN(c2c(C(=O)N3CCN(C(=O)N4CCCC4)CC3)cnc3c(F)cc(F)cc23)CC1`, the half-life was 27.2 min. Compound `c1cc2c(c(N3CCNCC3)c1)OCCO2` has a half-life greater than 120 min. In the case of `CCn1c(C(=O)NCc2ccccc2Cl)cc2sc(Cl)cc21`, the half-life is reported as 7.52 min. `CC(Cc1ccccc1)NCc1ccccc1Cl` (configuration not stated) gave a half-life of 10.6 min. Work on `C[C@]12CCC(=O)C=C1CC[C@@H]1[C@@H]2CC[C@@]2(C)[C@H]1CC[C@]2(O)C(=O)CO` yielded a half-life of 62.1 min. Work on `O=C(c1ccc(F)cc1)N1CCC(C(=O)N2CCC(N3Cc4ccccc4C3=O)CC2)CC1` yielded a half-life greater than 120 min. For `COc1ccc(-c2cc3onc(-c4ccncc4)c3c(=O)n2C)cc1`, the half-life was greater than 120 min. Compound `COCCOc1nc(N)c2[nH]c(=O)n(Cc3ccc(C(=O)O)cc3)c2n1` has a half-life greater than 120 min. Work on `O=C(N[C@H]1CN2CCC1CC2)c1cc2cccc(Cl)c2s1` yielded a half-life greater than 120 min. For `O=C(N/N=C/C1C=CC([N+](=O)[O-])O1)c1ccc(O)cc1` (configuration not stated), the half-life was greater than 120 min. `CC(C)(C)c1ccc(CNC(=S)NCc2ccc(NS(C)(=O)=O)c(F)c2)cc1` gave a half-life of 43 min. Work on `COc1ccc(C(=O)NC2CCN(c3cnn(CC4CC4)c(=O)c3)CC2)c(OC)n1` yielded a half-life greater than 120 min. With `Cc1ccc(-n2c(SCc3ccccc3F)nc3[nH]ncc3c2=O)cc1C` the half-life was 21.6 min. Work on `CC(C)NC[C@H](O)c1ccc2ccccc2c1` yielded a half-life of 18.8 min. In the case of `CN(C)CC/C=C1\c2ccccc2Sc2ccc(Cl)cc21`, the half-life is reported as 24.3 min. `CC(=O)[C@@]1(O)CC[C@H]2C3CCC4=CC(=O)CC[C@]4(C)C3CC[C@@]21C` (some centres not stated) gave a half-life of 9.86 min. In the case of `CN1CC(=O)N/C1=N/C(=O)Nc1cccc(Cl)c1`, the half-life is reported as 24.1 min. Compound `COc1ccc2nc(S(=O)Cc3ncc(C)c(OC)c3C)[nH]c2c1` (configuration not stated) has a half-life greater than 120 min. With `NC(=O)N1CCC(CC(=O)N2CCC(C3c4ncc(Br)cc4CCc4cc(Cl)cc(Br)c43)CC2)CC1` (configuration not stated) the half-life was 5.45 min. With `Fc1ccc([C@@H]2CCNC[C@H]2COc2ccc3c(c2)OCO3)cc1` the half-life was 71.3 min. With `CCCN(CCN1CCN(c2ccccc2OC)CC1)C1CCc2ncsc2C1` (configuration not stated) the half-life was 2.54 min. For `CC(C)=CCC1C(=O)N(c2ccccc2)N(c2ccccc2)C1=O`, the half-life was greater than 120 min. In the case of `C=Cc1cc(O)cc2nc(-c3ccc(O)c(F)c3)oc12`, the half-life is reported as 5.84 min. Work on `COP(N)(=O)SC` (configuration not stated) yielded a half-life of 51.6 min. For `COc1ccc(NC(=O)Cn2ccn(-c3ccc(C)c(C)c3)c(=O)c2=O)cc1Cl`, the half-life was greater than 120 min. Work on `CCC1(O)CC2c3cc(OC)c(OC)cc3CCN2CC1CC(C)C` (configuration not stated) yielded a half-life greater than 120 min. `CNc1nccc(-c2cccnc2Oc2cc(C(=O)Nc3cccc(C(F)(F)F)c3)ccc2C)n1` showed a half-life of 11.3 min. Work on `Cc1ccc(Cl)c(OCC(O)CNC(C)(C)C)c1` (configuration not stated) yielded a half-life of 1.53 min. Work on `O=C(O)CN1C(=O)c2cccc3cccc(c23)C1=O` yielded a half-life greater than 120 min. With `COc1cc(C=O)ccc1O` the half-life was 97.1 min. Compound `C=CC(=O)Nc1ccc2ncnc(Nc3cccc(Br)c3)c2c1` has a half-life of 12.5 min. In the case of `c1cncc(CN2CCC(n3ncc4c(N5CCOCC5)nc(-c5ccc6[nH]ccc6c5)nc43)CC2)c1`, the half-life is reported as 14.9 min. `O=c1cc(N2CCOCC2)oc2c(-c3cccc(F)c3)nccc12` was tested, and the half-life was 34.5 min. In the case of `Cc1cc(C(C)(C)C)c(O)c(C(C)(C)C)c1`, the half-life is reported as greater than 120 min. Work on `c1ccc(C2CC2)c(OCC2=NCCN2)c1` yielded a half-life greater than 120 min. `COc1ccc(CN2CCN(C(c3ccc(F)cc3)c3ccc(F)cc3)CC2)c(OC)c1OC` was tested, and the half-life was 13.1 min. Work on `CC1(C)C(=O)N(c2ccc(C#N)c(C(F)(F)F)c2)C(=S)N1c1ccc(C(N)=O)c(F)c1` yielded a half-life greater than 120 min.
